Measured values from US9242984B2, “Pyrazolyl derivatives as Syk inhibitors” (Merck Sharp & Dohme Corp., priority 2012, dated 2016).

What follows are compounds tested against T1, recombinant human Syk (GST-hSyk fusion protein) (Homo sapiens, UniProt P43405) (assay: Homogeneous Time-Resolved Fluorescence (HTRF) assay for the recombinant human Syk enzyme). Details: 10-dose titration, 25 μM ATP; read-out: rhSYK IC50.
T1 construct: purchased Carna Biosciences 08-176
Assay type: biochemical
Summary of the method: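 GST-hSyk (5 pM) preincubated 10 min with compound (0.1% DMSO) in 15 mM Tris-HCl pH 7.5, 2 mM DTT; reaction started with 250 nM biotinylated peptide, 5 mM Mg, 25 μM ATP, 45 min, room temperature. EDTA quench, Eu-anti-phosphotyrosine/SA-APC HTRF read after 30 min; IC50 from 10-dose titration (10 μM–0.508 nM), four-parameter fit.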

Row | Compound | IC50 [nM]
1 | Cc1cc(Nc2nccc(C(F)F)n2)cc(-c2cnn(CCNC(=O)C3CC3)c2)c1 [Example 26.1, N-(2-(4-(3-((4-(Difluoromethyl)pyrimidin-2-yl)amino)-5-methylphenyl)-1H-pyrazol-1-yl)ethyl)cyclopropanecarboxamide] | 25.2
2 | Cc1cc(Nc2nccc(C(F)F)n2)cc(-c2cnn(CC(O)(CO)C(F)(F)F)c2)c1 (single isomer, unassigned) [Example 32.1, (S or R)-2-((4-(3-((4-(difluoromethyl)pyrimidin-2-yl)amino)-5-methylphenyl)-1H-pyrazol-1-yl)methyl)-3,3,3-trifluoropropane-1,2-diol] | 1.6
3 | Cc1cc(Nc2nccc(C(F)(F)F)n2)cc(-c2cnn([C@H]3CC[C@@H](O)CC3)c2)c1 [Example 15, cis-4-[4-(3-methyl-5-{[4-(trifluoromethyl)pyrimidin-2-yl]amino}phenyl)-1H-pyrazol-1-yl]cyclohexanol] | 5.9
4 | Cc1cc(Nc2nccc(C(F)(F)F)n2)cc(-c2cnn(CC(C)(O)CO)c2)c1 (single isomer, unassigned) [Example 21.1, 2-Methyl-3-(4-(3-methyl-5-((4-(trifluoromethyl)pyrimidin-2-yl)amino)phenyl)-1H-pyrazol-1-yl)propane-1,2-diol] | 3.66

Same assay, conditions: IC50 class; 10-dose titration, 25 μM ATP; read-out: rhSYK Activity

Row | IC50 [nM] | Compound
5 | ≤ 100 | Cc1cc(Nc2nccc(C(F)F)n2)cc(-c2cnn(CCNC(=O)C3CC3)c2)c1 [Example 26.1, N-(2-(4-(3-((4-(Difluoromethyl)pyrimidin-2-yl)amino)-5-methylphenyl)-1H-pyrazol-1-yl)ethyl)cyclopropanecarboxamide]
6 | ≤ 100 | Cc1cc(Nc2nccc(C(F)(F)F)n2)cc(-c2cnn(Cc3ccnnc3)c2)c1 [Example 3.32, N-{3-methyl-5-[1-(pyridazin-4-ylmethyl)-1H-pyrazol-4-yl]phenyl}-4-(trifluoromethyl)pyrimidin-2-amine]
7 | ≤ 100 | Cc1cc(Nc2nccc(C)n2)cc(-c2cnn(CC3OC(=O)NC3C)c2)c1 (single isomer, unassigned) [Example 23.8, 4-methyl-5-[(4-{3-methyl-5-[(4-methylpyrimidin-2-yl)amino]phenyl}-1H-pyrazol-1-yl)methyl]-1,3-oxazolidin-2-one]
8 | ≤ 100 | Cc1cc(Nc2nccc(C(C)(F)F)n2)cc(-c2cnn(CC3CNC(=O)O3)c2)c1 (stereo not drawn) [Example 3.125, 5-{[4-(3-{[4-(1,1-difluoroethyl)pyrimidin-2-yl]amino}-5-methylphenyl)-1H-pyrazol-1-yl]methyl}-1,3-oxazolidin-2-one]
9 | ≤ 100 | Cc1cc(Nc2nccc(C(F)(F)F)n2)cc(-c2cnn(CC3(O)CCCOC3)c2)c1 (stereo not drawn) [Example 12.7, 3-{[4-(3-methyl-5-{[4-(trifluoromethyl)pyrimidin-2-yl]amino}phenyl)-1H-pyrazol-1-yl]methyl}-tetrahydro-2H-pyran-3-ol]
10 | ≤ 100 | CCOC(=O)C(C)n1cc(-c2cc(C)cc(Nc3nccc(C(F)(F)F)n3)c2)cn1 (stereo not drawn) [Example 3.30, ethyl 2-[4-(3-methyl-5-{[4-(trifluoromethyl)-pyrimidin-2-yl]amino}phenyl)-1H-pyrazol-1-yl]propanoate]
11 | ≤ 100 | Cc1cc(Nc2nccc(C(F)(F)F)n2)cc(-c2cnn(C(C)C(C)(O)CO)c2)c1 (single isomer, unassigned) [Example 21.11, 2-methyl-3-[4-(3-methyl-5-{[4-(trifluoromethyl)pyrimidin-2-yl]amino}phenyl)-1H-pyrazol-1-yl]butane-1,2-diol]
12 | ≤ 100 | Cc1cc(Nc2nccc(C(F)(F)F)n2)cc(-n2cc(C(C)(O)[C@H]3CC[C@H](C(=O)O)CC3)cn2)c1 (stereo partly drawn) [Example 19.13, trans-4-{1-hydroxy-1-[1-(3-methyl-5-{[4-(trifluoromethyl)pyrimidin-2-yl]amino}phenyl)-1H-pyrazol-4-yl]ethyl}cyclohexanecarboxylic acid]
13 | ≤ 100 | Cc1cc(Nc2nccc(C(F)F)n2)cc(-c2cnn(CC(O)CC3(O)CCCCC3)c2)c1 (stereo not drawn) [Example 5.27, 1-{3-[4-(3-{[4-(difluoromethyl)pyrimidin-2-yl]amino}-5-methylphenyl)-1H-pyrazol-1-yl]-2-hydroxypropyl}cyclohexanol]
14 | ≤ 100 | Cc1cc(Nc2nccc(C(F)F)n2)cc(-c2cnn(C(C)C3CNC(=O)O3)c2)c1 (stereo not drawn) [Example 3.93, 5-{1-[4-(3-{[4-(difluoromethyl)pyrimidin-2-yl]amino}-5-methylphenyl)-1H-pyrazol-1-yl]ethyl}-1,3-oxazolidin-2-one]
15 | ≤ 100 | Cc1cc(Nc2nccc(C(F)F)n2)cc(-c2cnn(CCNC(=O)CC#N)c2)c1 [Example 26.4, 2-cyano-N-{2-[4-(3-{[4-(difluoromethyl)pyrimidin-2-yl]amino}-5-methylphenyl)-1H-pyrazol-1-yl]ethyl}acetamide]
16 | ≤ 100 | Cc1cc(Nc2nccc(C(F)F)n2)cc(-c2cnn(CCc3cn[nH]c3)c2)c1 [Example 3.111, 4-(difluoromethyl)-N-(3-methyl-5-{1-[2-(1H-pyrazol-4-yl)ethyl]-1H-pyrazol-4-yl}phenyl)pyrimidin-2-amine]
17 | ≤ 100 | Cc1cc(Nc2nccc(C(F)(F)F)n2)cc(-c2cnn(C[C@H](O)C(=O)O)c2)c1 [Example 5.17, (2S)-2-hydroxy-3-[4-(3-methyl-5-{[4-(trifluorometh-yl)pyrimidin-2-yl]amino}-phenyl)-1H-pyrazol-1-yl]propanoic acid]
18 | ≤ 100 | Cc1cc(Nc2nccc(C(F)F)n2)cc(-c2cnn(CC(O)(CO)C(F)(F)F)c2)c1 (single isomer, unassigned) [Example 32.1, (S or R)-2-((4-(3-((4-(difluoromethyl)pyrimidin-2-yl)amino)-5-methylphenyl)-1H-pyrazol-1-yl)methyl)-3,3,3-trifluoropropane-1,2-diol]
19 | ≤ 100 | Cc1cc(Nc2nccc(C(C)(F)F)n2)cc(-c2cnn(CC(C)(O)CC#N)c2)c1 (stereo not drawn) [Example 20.10, 4-[4-(3-{[4-(1,1-difluoroethyl)pyrimidin-2-yl]amino}-5-methylphenyl)-1H-pyrazol-1-yl]-3-hydroxy-3-methylbutanenitrile]
20 | ≤ 100 | Cc1cc(Nc2nccc(C(F)(F)F)n2)cc(-c2cnn(C3CCC(C(N)=O)CC3)c2)c1 (stereo not drawn) [Example 8.18, 4-[4-(3-methyl-5-{[4-(trifluorometh-yl)pyrimidin-2-yl]amino}phenyl)-1H-pyrazol-1-yl]-cyclohexane-carboxamide]
21 | ≤ 100 | COc1ccnc(Nc2cccc(-c3cnn(C[C@H](O)C(=O)O)c3)c2)n1 [Example 11.4, (2S)-2-hydroxy-3-(4-{3-[(4-methoxy-pyrimidin-2-yl)-amino]phenyl}-1H-pyrazol-1-yl)-propanoic acid]
22 | ≤ 100 | Cc1cc(Nc2nccc(C(F)(F)F)n2)cc(-c2cnn(CC(C)(O)CO)c2)c1 (single isomer, unassigned) [Example 21.1, 2-Methyl-3-(4-(3-methyl-5-((4-(trifluoromethyl)pyrimidin-2-yl)amino)phenyl)-1H-pyrazol-1-yl)propane-1,2-diol]
23 | ≤ 100 | Cc1cc(Nc2nccc(C)n2)cc(-c2cnn(C[C@@H](O)C(=O)O)c2)c1 [Example 11.10, (2R)-2-hydroxy-3-(4-{3-methyl-5-[(4-methylpyrimidin-2-yl)amino]phenyl}-1H-pyrazol-1-yl)propanoic acid]
24 | 100 to 1000 | Cc1cc(Nc2nccc(C(F)(F)F)n2)cc(-c2cnn(CC(=O)N3CCOCC3(C)C)c2)c1 [Example 3.13, N-(3-{1-[2-(3,3-dimethylmorpholin-4-yl)-2-oxoethyl]-1H-pyrazol-4-yl}-5-methylphenyl)-4-(trifluoromethyl)pyrimidin-2-amine]

Further lines, the compound ahead of its results:

Row | Compound | IC50 [nM]
25 | Cc1cc(Nc2nccc(C(F)(F)F)n2)cc(-c2cnn(C3CCC(C(=O)O)CC3)c2)c1 (stereo not drawn) [Example 1.57, 4-[4-(3-methyl-5-{[4-(trifluoromethyl)pyrimidin-2-yl]amino}phenyl)-1H-pyrazol-1-yl]cyclohexanecarboxylic acid] | ≤ 100
26 | COc1nc(Nc2cc(C)cc(-c3cnn(C[C@](C)(O)CO)c3)c2)ncc1Cl [Example 2.98, (2S)-3-(4-{3-[(5-chloro-4-methoxypyrimidin-2-yl)amino]-5-methylphenyl}-1H-pyrazol-1-yl)-2-methylpropane-1,2-diol] | ≤ 100
27 | COc1nc(Nc2cc(C)cc(-c3cnn(CCC(N)=O)c3)c2)ncc1F [Example 2.11, 3-(4-{3-[(5-fluoro-4-methoxypyrimidin-2-yl)amino]-5-methylphenyl}-1H-pyrazol-1-yl)propanamide] | ≤ 100
28 | O=C(O)CCn1cc(-c2cccc(Nc3cc(C(F)(F)F)ccn3)n2)cn1 [Example 1.19, 3-[4-(6-{[4-(trifluoromethyl)pyridin-2-yl]amino}pyridin-2-yl)-1H-pyrazol-1-yl]propanoic acid] | ≤ 100
29 | Cc1cc(Nc2nccc(C(F)F)n2)cc(-c2cnn(C(C[C@H](C)O)[C@@H](C)O)c2)c1 (stereo in doubt) [Example 2.49, 3-[4-(3-{[4-(difluoromethyl)pyrimidin-2-yl]amino}-5-methylphenyl)-1H-pyrazol-1-yl]hexane-2,5-diol] | ≤ 100
30 | Cc1cc(Nc2cc(C(F)(F)F)ccn2)nc(-c2cnn(CC(=O)O)c2)c1 [Example 1.31, [4-(4-methyl-6-{[4-(trifluoromethyl)pyridin-2-yl]amino}pyridin-2-yl)-1H-pyrazol-1-yl]acetic acid] | ≤ 100
31 | CCOC(=O)CCn1cc(-c2cc(C)cc(Nc3cc(C)c(Cl)cn3)n2)cn1 [Example 1.25, ethyl 3-(4-{6-[(5-chloro-4-methylpyridin-2-yl)amino]-4-methylpyridin-2-yl}-1H-pyrazol-1-yl)propanoate] | 100 to 1000
32 | Cc1cc(Nc2nccc(C(F)F)n2)cc(-c2cnn(Cc3cc[nH]c(=O)c3)c2)c1 [Example 2.72, 4-{[4-(3-{[4-(difluoromethyl)pyrimidin-2-yl]amino}-5-methylphenyl)-1H-pyrazol-1-yl]methyl}pyridin-2(1H)-one] | ≤ 100
33 | Cc1cc(Nc2nccc(C(F)F)n2)cc(-c2cnn(CC3OC(=O)NC3=O)c2)c1 (stereo not drawn) [Example 2.74, 5-{[4-(3-{[4-(difluoromethyl)pyrimidin-2-yl]amino}-5-methylphenyl)-1H-pyrazol-1-yl]methyl}-1,3-oxazolidine-2,4-dione] | ≤ 100
34 | COc1ccnc(Nc2cc(C)cc(-c3cnn(CC4CNC(=O)O4)c3)c2)n1 (stereo not drawn) [Example 2.17, 5-[(4-{3-[(4-methoxypyrimidin-2-yl)amino]-5-methylphenyl}-1H-pyrazol-1-yl)methyl]-1,3-oxazolidin-2-one] | ≤ 100
35 | Cc1cc(Nc2nccc(C(F)(F)F)n2)cc(-c2cnn([C@H]3CC[C@@H](O)CC3)c2)c1 [Example 15, cis-4-[4-(3-methyl-5-{[4-(trifluoromethyl)pyrimidin-2-yl]amino}phenyl)-1H-pyrazol-1-yl]cyclohexanol] | ≤ 100
36 | Cc1cc(Nc2cc(C(F)(F)F)ccn2)nc(-c2cnn(CC(=O)OC(C)(C)C)c2)c1 [Example 1.30, tert-butyl [4-(4-methyl-6-{[4-(trifluoromethyl)pyridin-2-yl]amino}pyridin-2-yl)-1H-pyrazol-1-yl]acetate] | ≤ 100
